Assay [1] has as its target human A2a adenosine receptor (Homo sapiens (Human), UniProt P29274). Put plainly: A2a receptor affinity radioligand binding assay ([3H] SCH58261). To be noted: for pIC50: membranes from HEK293 or CHO cells expressing human A2a receptor. Put shortly: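 IC50 values come from 4-parameter logistic fits of filter-bound radioactivity, normalized to total (1% DMSO) and nonspecific (1 μM ZM241385) binding. Recombinant human A2a membranes (HEK293 or CHO) were exposed to compound for 15–30 min, then to [3H]SCH58261 (4 nM working dilution) for 60 min at room temperature in Tris pH 7.4/MgCl2/Tween20 buffer.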

Assay [2] addresses human A2b adenosine receptor (Homo sapiens (Human), UniProt P29275). Put plainly: A2b radioligand filtration binding assay. To be noted: membranes from HEK293 cells expressing human A2b receptor. In outline: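 Displacement of a tritiated A2b antagonist (working solution 14 nM) from human A2b receptor membranes of recombinant HEK293 cells, in Mg/Ca-free PBS pH 7.4, 60 min at room temperature after 15 to 30 min compound preincubation. Filtered, counted; normalized to total and 20 μM NECA non-specific binding; IC50 from logistic fit.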

pIC50: −log10 of the molar value.

Sequence of human A2b adenosine receptor (P29275 whole entry): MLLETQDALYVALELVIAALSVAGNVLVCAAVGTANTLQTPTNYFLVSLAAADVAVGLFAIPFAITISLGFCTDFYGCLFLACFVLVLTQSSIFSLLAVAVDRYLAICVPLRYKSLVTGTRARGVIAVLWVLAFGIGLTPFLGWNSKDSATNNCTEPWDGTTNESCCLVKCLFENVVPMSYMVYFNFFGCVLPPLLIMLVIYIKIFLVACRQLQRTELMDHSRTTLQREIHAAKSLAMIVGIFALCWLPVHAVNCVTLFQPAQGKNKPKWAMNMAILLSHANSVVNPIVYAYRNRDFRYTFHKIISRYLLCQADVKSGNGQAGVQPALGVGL
Sequence of human A2a adenosine receptor (P29274 whole entry): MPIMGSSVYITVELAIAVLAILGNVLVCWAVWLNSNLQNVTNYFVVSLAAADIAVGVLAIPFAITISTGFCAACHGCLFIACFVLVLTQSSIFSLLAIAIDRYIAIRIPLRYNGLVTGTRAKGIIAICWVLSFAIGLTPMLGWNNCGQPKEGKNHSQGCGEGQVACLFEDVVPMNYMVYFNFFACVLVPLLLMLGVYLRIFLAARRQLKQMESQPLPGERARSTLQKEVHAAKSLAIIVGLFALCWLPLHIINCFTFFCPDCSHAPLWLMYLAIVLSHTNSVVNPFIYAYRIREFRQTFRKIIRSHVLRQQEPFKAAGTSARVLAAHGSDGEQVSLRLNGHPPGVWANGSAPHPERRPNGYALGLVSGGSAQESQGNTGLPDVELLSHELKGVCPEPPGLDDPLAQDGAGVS

What is called pIC50 is the IC50 on a negative log10 scale, so that one unit is a factor of ten. Regarding `COc1cc(F)cc2c1nc(N)n1nc(C3CCC(C)N(c4cnn(C(C)(C)CO)c4)C3)nc21` (single isomer, unassigned) [Example 122, 2-(4-((2R or 2S,5R or 5S)-5-(5-amino-9-fluoro-7-methoxy-[1,2,4]triazolo[1,5-c]quinazolin-2-yl)-2-methylpiperidin-1-yl)-1H-pyrazol-1-yl)-2-methylpropan-1-ol], the values for the pIC50 in assay [1] and in assay [2] were 6.43 and 5.69, respectively.

As for `COc1cc(F)cc2c1nc(N)n1nc(C3CCC(C)N(c4cnn(C(C)(C)CO)c4)C3)nc21` (single isomer, unassigned) [Example 123, 2-(4-((2S or 2R,5S or 5R)-5-(5-amino-9-fluoro-7-methoxy-[1,2,4]triazolo[1,5-c]quinazolin-2-yl)-2-methylpiperidin-1-yl)-1H-pyrazol-1-yl)-2-methylpropan-1-ol], the results for the pIC50 in assay [1] and in assay [2] were 9.52 and 6.37, respectively.

As for `COc1cc(F)cc2c1nc(N)n1nc(C3CCC(C)N(c4cnn(C(C)(C)CO)c4)C3)nc21` (single isomer, unassigned) [Example 124, 2-(4-((2R or 2S,5S or 5R)-5-(5-amino-9-fluoro-7-methoxy-[1,2,4]triazolo[1,5-c]quinazolin-2-yl)-2-methylpiperidin-1-yl)-1H-pyrazol-1-yl)-2-methylpropan-1-ol], the values for the pIC50 in assay [1] and in assay [2] were 9.52 and 8.77, respectively.

With `COc1cc(F)cc2c1nc(N)n1nc(C3CCC(C)N(c4cnn(C(C)(C)CO)c4)C3)nc21` (single isomer, unassigned) [Example 125, 2-(4-((2S or 2R,5R or 5S)-5-(5-amino-9-fluoro-7-methoxy-[1,2,4]triazolo[1,5-c]quinazolin-2-yl)-2-methylpiperidin-1-yl)-1H-pyrazol-1-yl)-2-methylpropan-1-ol], the pIC50 is 7.06 in assay [1] and 5.60 in assay [2].

Consider `COc1cc2nc(N)n3nc(C4CCC(C)N(c5cnn(C(C)(C)CO)c5)C4)nc3c2cc1F` (single isomer, unassigned) [Example 126, rac-2-(4-((2R or 2S,5R or 5S)-5-(5-amino-9-fluoro-8-methoxy-[1,2,4]triazolo[1,5-c]quinazolin-2-yl)-2-methylpiperidin-1-yl)-1H-pyrazol-1-yl)-2-methylpropan-1-ol], for which the pIC50 in assay [1] is 8.59; in assay [2], 5.67.

For the molecule `COc1cc2nc(N)n3nc(C4CCC(C)N(c5cnn(C(C)(C)CO)c5)C4)nc3c2cc1F` (single isomer, unassigned) [Example 127, 2-(4-((2R or 2S,5R or 5S)-5-(5-amino-9-fluoro-8-methoxy-[1,2,4]triazolo[1,5-c]quinazolin-2-yl)-2-methylpiperidin-1-yl)-1H-pyrazol-1-yl)-2-methylpropan-1-ol], the pIC50 in assay [1] is 6.92; in assay [2] it was 5.94.

On to `COc1cc2nc(N)n3nc(C4CCC(C)N(c5cnn(C(C)(C)CO)c5)C4)nc3c2cc1F` (single isomer, unassigned) [Example 128], for which the negative logarithm of the IC50 (pIC50) in assay [1] is 9.52; in assay [2], 8.62.

For the molecule `COc1cc(F)cc2c1nc(N)n1nc(C3(F)CCCN(c4cnn(CC(C)(C)O)c4)C3)nc21` (single isomer, unassigned) [Example 133, (S or R)-1-(4-(3-(5-amino-9-fluoro-7-methoxy-[1,2,4]triazolo[1,5-c]quinazolin-2-yl)-3-fluoropiperidin-1-yl)-1H-pyrazol-1-yl)-2-methylpropan-2-ol], the results for the pIC50 in assay [1] and in assay [2] were 8.37 and 6.25, respectively.

Take `COc1cc(F)cc2c1nc(N)n1nc(C3(F)CCCN(c4cnn(CC(C)(C)O)c4)C3)nc21` (single isomer, unassigned) [Example 134, (R or S)-1-(4-(3-(5-amino-9-fluoro-7-methoxy-[1,2,4]triazolo[1,5-c]quinazolin-2-yl)-3-fluoropiperidin-1-yl)-1H-pyrazol-1-yl)-2-methylpropan-2-ol]: the values for the pIC50 in assay [1] and in assay [2] were 6.91 and 5.37, respectively.

Regarding `COc1cc2nc(N)n3nc(C4CN(c5cn(CC(C)(C)O)nc5C)CCS4(=O)=O)nc3c2cc1F` (single isomer, unassigned) [Example 142, (R or S)-2-(5-amino-9-fluoro-8-methoxy-[1,2,4]triazolo[1,5-c]quinazolin-2-yl)-4-(1-(2-hydroxy-2-methylpropyl)-3-methyl-1H-pyrazol-4-yl)thiomorpholine 1,1-dioxide], in assay [1], the “A2A binding % Inh. @ 1000 nM” value is given as 32% Inh. @. Moreover, the pIC50 in assay [2] is 5.10.

In the case of `COc1cc2nc(N)n3nc(C4CN(c5cn(CC(C)(C)O)nc5C)CCS4(=O)=O)nc3c2cc1F` (single isomer, unassigned) [Example 143, (S or R)-2-(5-amino-9-fluoro-8-methoxy-[1,2,4]triazolo[1,5-c]quinazolin-2-yl)-4-(1-(2-hydroxy-2-methylpropyl)-3-methyl-1H-pyrazol-4-yl)thiomorpholine 1,1-dioxide], the pIC50 in assay [1] was 6.01; in assay [2], 5.12.

As to `COc1cc2nc(N)n3nc(C4CN(c5cnn(CC(C)(C)O)c5C)CCS4(=O)=O)nc3c2cc1F` (single isomer, unassigned) [Example 144, (R or S)-2-(5-amino-9-fluoro-8-methoxy-[1,2,4]triazolo[1,5-c]quinazolin-2-yl)-4-(1-(2-hydroxy-2-methylpropyl)-5-methyl-1H-pyrazol-4-yl)thiomorpholine 1,1-dioxide], the “A2A binding % Inh. @ 1000 nM” value in assay [1] is 30% Inh. @. In assay [2], this molecule showed a pIC50 of 5.15.

Regarding `COc1cc2nc(N)n3nc(C4CN(c5cnn(CC(C)(C)O)c5C)CCS4(=O)=O)nc3c2cc1F` (single isomer, unassigned) [Example 145, (S or R)-2-(5-amino-9-fluoro-8-methoxy-[1,2,4]triazolo[1,5-c]quinazolin-2-yl)-4-(1-(2-hydroxy-2-methylpropyl)-5-methyl-1H-pyrazol-4-yl)thiomorpholine 1,1-dioxide], the “A2A binding % Inh. @ 1000 nM” value in assay [1] is 32% Inh. @. Also, in assay [2], the pIC50 was 5.09.

On to `CCn1cc([C@@]2(O)CCCC(c3nc4c5cc(F)c(OC)cc5nc(N)n4n3)C2)cn1` (single isomer, unassigned) [Example 146, (1R or 1S,3R or 3S)-3-(5-amino-9-fluoro-8-methoxy-[1,2,4]triazolo[1,5-c]quinazolin-2-yl)-1-(1-ethyl-1H-pyrazol-4-yl)cyclohexan-1-ol], for which the figures for the pIC50 in assay [1] and in assay [2] were 8.68 and 6.86, respectively.

As for `CCn1cc([C@]2(O)CCC[C@H](c3nc4c5cc(F)c(OC)cc5nc(N)n4n3)C2)cn1` (single isomer, unassigned) [Example 147, (1S or 1R,3S or 3R)-3-(5-amino-9-fluoro-8-methoxy-[1,2,4]triazolo[1,5-c]quinazolin-2-yl)-1-(1-ethyl-1H-pyrazol-4-yl)cyclohexan-1-ol], the pIC50 in assay [1] was 6.06; in assay [2] it was 5.20.

In the case of `CCn1cc([C@]2(O)CCC[C@@H](c3nc4c5cc(F)c(OC)cc5nc(N)n4n3)C2)cn1` (single isomer, unassigned) [Example 148, (1S or 1R,3R or 3S)-3-(5-amino-9-fluoro-8-methoxy-[1,2,4]triazolo[1,5-c]quinazolin-2-yl)-1-(1-ethyl-1H-pyrazol-4-yl)cyclohexan-1-ol], the pIC50 in assay [1] is 6.41; in assay [2] it was 5.35.

Turning to `CCn1cc([C@]2(O)CCC[C@@H](c3nc4c5cc(F)c(OC)cc5nc(N)n4n3)C2)cn1` (single isomer, unassigned) [Example 149, (1S or 1R,3R or 3S)-3-(5-amino-9-fluoro-8-methoxy-[1,2,4]triazolo[1,5-c]quinazolin-2-yl)-1-(1-ethyl-1H-pyrazol-4-yl)cyclohexan-1-ol], the pIC50 was 8.74 in assay [1] and 7.02 in assay [2].

With `COc1cccc2c1nc(N)n1nc([C@@H]3CCC[C@](O)(c4cnn(CC(C)(C)O)c4)C3)nc21` (single isomer, unassigned) [Example 150, (1R,3R or 1S,3S)-3-(5-amino-7-methoxy-[1,2,4]triazolo[1,5-c]quinazolin-2-yl)-1-(1-(2-hydroxy-2-methylpropyl)-1H-pyrazol-4-yl)cyclohexan-1-ol], the pIC50 in assay [1] was 8.85; in assay [2] it was 6.74.

Regarding `COc1cc2nc(N)n3nc([C@@H]4CCCN(c5ncn(CC(C)(C)O)n5)C4)nc3c2cc1F` [Example 1, (R)-1-(3-(3-(5-amino-9-fluoro-8-methoxy-[1,2,4]triazolo[1,5-c]quinazolin-2-yl)piperidin-1-yl)-1H-1,2,4-triazol-1-yl)-2-methylpropan-2-ol], the values for the pIC50 in assay [1] and in assay [2] were 8.12 and 6.26, respectively.

Consider `COc1cc2nc(N)n3nc([C@@H]4CCCN(c5cnn(C)c5)C4)nc3c2cc1F` [Example 2, (R)-9-fluoro-8-methoxy-2-(1-(1-methyl-1H-pyrazol-4-yl)piperidin-3-yl)-[1,2,4]triazolo[1,5-c]quinazolin-5-amine], for which the results for the pIC50 in assay [1] and in assay [2] were 8.43 and 8.03, respectively.

Consider `COc1cc2nc(N)n3nc([C@@H]4CCCN(c5cnn(C(C)(C)C)c5)C4)nc3c2cc1F` [Example 3, (R)-2-(1-(1-(tert-butyl)-1H-pyrazol-4-yl)piperidin-3-yl)-9-fluoro-8-methoxy-[1,2,4]triazolo[1,5-c]quinazolin-5-amine], for which the pIC50 is 8.82 in assay [1] and 6.74 in assay [2].

For the molecule `COc1cc2nc(N)n3nc([C@@H]4CCCN(c5cnn(C(C)C)c5)C4)nc3c2cc1F` [Example 4, (R)-9-fluoro-2-(1-(1-isopropyl-1H-pyrazol-4-yl)piperidin-3-yl)-8-methoxy-[1,2,4]triazolo[1,5-c]quinazolin-5-amine], the pIC50 is 8.34 in assay [1] and 8.59 in assay [2].

The record behind these values is patent US11312719B2, “9-substituted amino triazolo quinazoline derivatives as adenosine receptor antagonists, pharmaceutical compositions and their use” (Merck Sharp & Dohme Corp., priority 2018, dated 2022).
